According to patent publication US10562912B2 (C&C Research Laboratories, priority 2013, dated 2020):

Legend:
Format in all cases: cell-based
STAT3 = molecular target: T1, STAT3 (Homo sapiens, UniProt P40763); test: STAT3 reporter gene assay (luciferase), LNCaP stable cell line (pSTAT3-TA-luc), IL-6 stimulation
T1 construct: plasmid pSTAT3-TA-luc), which contains a stably operating STAT3 promoter; endogenous in cells
How it was run: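 LNCaP cells stably carrying pSTAT3-TA-luc, in RPMI1640 with 3% DCC-FBS, were treated with compound and then stimulated with 10 ng/mL IL-6 for 24–48 h at 37 °C. Luciferase activity was measured in lysates. A parallel plate measured viability by CellTiter-Glo, with stimulated 0.1% DMSO wells as the positive control.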

LNCaP = test: Cell growth inhibition assay, prostate cancer cell line LNCaP (medium with 10 ng/mL IL-6); conditions: Homo sapiens, medium supplemented with 10 ng/mL of IL-6, 10,000 cells/well
DU-145 = test: Cell growth inhibition assay, prostate cancer cell line DU-145; conditions: Homo sapiens, DU-145 prostate cancer cell line
How it was run: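 Luminescent CellTiter-Glo readout of viable cells after 72–96 h compound exposure (37° C., 5% CO2). Seeding: 3,000 cells/well for DU-145 and HCT116, 5,000 cells/well for SW626. Controls were medium without cells and 0.1% DMSO vehicle.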

HEL92.1.7 = test: Cell growth inhibition assay, blood cancer cell line HEL92.1.7; conditions: Homo sapiens, HEL 92.1.7, HEL92.1.7 blood cancer cell line
How it was run: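 Cells were seeded at 3,000/well (HCT116, DU-145) or 5,000/well (SW626 and the others) and exposed to serial compound dilutions for 72 to 96 h at 37 °C under 5% CO2. Viability was read as CellTiter-Glo luminescence against 0.1% DMSO and cell-free wells.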

T1 sequence (P40763 whole entry): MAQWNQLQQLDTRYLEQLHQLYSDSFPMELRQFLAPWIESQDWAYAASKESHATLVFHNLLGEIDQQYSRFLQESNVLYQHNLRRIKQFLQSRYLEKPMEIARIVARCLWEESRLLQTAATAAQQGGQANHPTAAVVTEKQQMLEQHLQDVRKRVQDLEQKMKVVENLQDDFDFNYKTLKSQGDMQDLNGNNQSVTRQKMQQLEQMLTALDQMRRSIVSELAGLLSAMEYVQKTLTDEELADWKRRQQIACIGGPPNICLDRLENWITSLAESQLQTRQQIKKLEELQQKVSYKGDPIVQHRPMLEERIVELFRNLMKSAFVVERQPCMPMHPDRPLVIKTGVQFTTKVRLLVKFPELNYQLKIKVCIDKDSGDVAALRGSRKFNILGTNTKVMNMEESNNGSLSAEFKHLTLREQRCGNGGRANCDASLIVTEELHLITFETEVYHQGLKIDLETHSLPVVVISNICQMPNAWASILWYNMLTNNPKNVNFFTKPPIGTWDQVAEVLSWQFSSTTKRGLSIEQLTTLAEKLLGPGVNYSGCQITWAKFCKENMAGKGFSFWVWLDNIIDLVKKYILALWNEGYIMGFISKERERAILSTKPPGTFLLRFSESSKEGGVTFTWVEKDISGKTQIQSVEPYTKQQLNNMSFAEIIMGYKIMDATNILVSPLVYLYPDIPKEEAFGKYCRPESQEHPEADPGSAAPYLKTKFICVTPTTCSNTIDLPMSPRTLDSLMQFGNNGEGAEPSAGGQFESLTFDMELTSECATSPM

| IC50 (STAT3) [µM] | IC50 (LNCaP) [µM] | IC50 (DU-145) [µM] | IC50 (HEL92.1.7) [µM] | Structure (SMILES) |
| --- | --- | --- | --- | --- |
| 0.043 | 0.053 | 0.027 | 0.099 | CC(C)Oc1cc(OC(F)(F)F)cc(C(C)(C)c2cc(Cl)cc(NC(=O)c3cc4cc(NS(=O)(=O)CCN5CCOCC5)ccc4s3)c2)c1 [Example 209, N-(3-chloro-5-(2-(3-isopropoxy-5-(trifluoromethoxy)phenyl)propan-2-yl)phenyl)-5-((2-morpholinoethyl)sulfonamido)benzo[b]thiophene-2-carboxamide] |
| 0.19 | 0.19 | 0.051 | 0.35 | CC(=O)N1CCC(S(=O)(=O)Nc2ccc3sc(C(=O)Nc4cc(Cl)cc(C(C)(C)c5cc(OC(C)C)cc(OC(F)(F)F)c5)c4)cc3c2)CC1 [Example 206, 5-((1-acetylpiperidine)-4-sulfonamido)-N-(3-chloro-5-(2-(3-isopropoxy-5-(trifluoromethoxy)phenyl)propan-2-yl)phenyl)benzo[b]thiophene-2-carboxamide] |
| 0.17 | 0.99 | 0.3 | > 1.1 | CC(C)Oc1cc(OC(F)(F)F)cc(C(C)(C)c2cc(I)cc(NC(=O)c3sc4ccc(NS(C)(=O)=O)cc4c3I)c2)c1 [Example 214, 3-iodo-N-(3-iodo-5-(2-(3-isopropoxy-5-(trifluoromethoxy)phenyl)propan-2-yl)phenyl)-5-(methylsulfonamido)benzo[b]thiophene-2-carboxamide] |
| 1.19 | 0.19 | 0.18 | 0.9 | CC(C)Oc1cc(OC(F)(F)F)cc(C(C)(C)c2cc(Cl)cc(NC(=O)c3cc4cc(N(CCN(C)C)S(C)(=O)=O)c(F)cc4s3)c2)c1 [Example 219, N-(3-chloro-5-(2-(3-isopropoxy-5-(trifluoromethoxy)phenyl)propan-2-yl)phenyl)-5-(N-(2-(dimethylamino)ethyl)methylsulfonamido)-6-fluorobenzo[b]thiophene-2-carboxamide] |
| 0.2 | 0.42 | 0.16 | 0.48 | CS(=O)(=O)Nc1ccc2sc(C(=O)Nc3cc(Cl)cc(Nc4ccc(F)cc4F)c3)cc2c1 [Example 438, N-(3-chloro-5-((2,4-difluorophenyl)amino)phenyl)-5-(methylsulfonamido)benzo[b]thiophene-2-carboxamide] |
| 0.016 | 0.025 | 0.007 | 0.076 | CC(C)(c1cc(F)cc(NC(=O)c2cc3cc(NS(C)(=O)=O)ccc3s2)c1)c1cc(OC(F)(F)F)cc(OC(F)(F)C(F)F)c1 [Example 85, N-(3-fluoro-5-(2-(3-(1,1,2,2-tetrafluoroethoxy)-5-(trifluoromethoxy)phenyl)propan-2-yl)phenyl)-5-(methylsulfonamido)benzo[b]thiophene-2-carboxamide] |
| 0.067 | 0.071 | 0.017 | 0.1 | CC(C)Oc1cc(Cl)cc(C(C)(C)c2cc(Cl)cc(NC(=O)c3cc4cc(NS(C)(=O)=O)ccc4s3)c2)c1 [Example 92, N-(3-chloro-5-(2-(3-chloro-5-isopropoxyphenyl)propan-2-yl)phenyl)-5-(methylsulfonamido)benzo[b]thiophene-2-carboxamide] |
| > 10 | > 1.1 | > 1.1 | > 1.1 | CC(C)Oc1cc(OC(F)(F)F)cc(C(C)(C)c2cc(Cl)cc(NC(=O)c3cc4cc(NC(=O)OC(C)(C)C)ccc4s3)c2)c1 [Example 194, tert-butyl (2-((3-chloro-5-(2-(3-isopropoxy-5-(trifluoromethoxy)phenyl)propan-2-yl)phenyl)carbamoyl)benzo[b]thiophen-5-yl)carbamate] |
| 0.02 | 0.084 | 0.022 | 0.12 | CC(C)Oc1cc(OC(F)(F)F)cc(C(C)(C)c2cc(Cl)cc(NC(=O)c3cc4cc(NS(=O)(=O)CC5CCOC5)ccc4s3)c2)c1 (stereo not drawn) [Example 196, N-(3-chloro-5-(2-(3-isopropoxy-5-(trifluoromethoxy)phenyl)propan-2-yl)phenyl)-5-(((tetrahydrofuran-3-yl)methyl)sulfonamido)benzo[b]thiophene-2-carboxamide] |
| 0.004 | 0.008 | 0.002 | 0.014 | CC(C)Oc1cc(OC(F)(F)F)cc(C(C)(C)c2cc(Cl)cc(NC(=O)c3cc4cc(NS(C)(=O)=O)c(F)cc4s3)c2)c1 [Example 84, N-(3-chloro-5-(2-(3-isopropoxy-5-(trifluoromethoxy)phenyl)propan-2-yl)phenyl)-6-fluoro-5-(methylsulfonamido)benzo[b]thiophene-2-carboxamide] |
| 0.11 | 0.015 | 0.011 | 0.69 | CC(C)(C)OC(=O)N1CCC(Oc2cc(OC(F)(F)F)cc(C(C)(C)c3cc(Cl)cc(NC(=O)c4cc5cc(NS(C)(=O)=O)ccc5s4)c3)c2)CC1 [Example 95, tert-butyl 4-(3-(2-(3-chloro-5-(5-(methylsulfonamido)benzo[b]thiophene-2-carboxamido)phenyl)propan-2-yl)-5-(trifluoromethoxy)phenoxy)piperidine-1-carboxylate] |
| 0.65 | 0.34 | 0.15 | 0.68 | Cc1noc(C)c1S(=O)(=O)Nc1ccc2sc(C(=O)Nc3cc(Cl)cc(C(C)(C)c4cc(OC(C)C)cc(OC(F)(F)F)c4)c3)cc2c1 [Example 199, N-(3-chloro-5-(2-(3-isopropoxy-5-(trifluoromethoxy)phenyl)propan-2-yl)phenyl)-5-((3,5-dimethylisoxazole)-4-sulfonamido)benzo[b]thiophene-2-carboxamide] |
| 0.38 | 0.36 | 0.14 | 1.05 | CC(C)(c1cc(Br)cc(NC(=O)c2cc3cc(NS(C)(=O)=O)ccc3s2)c1)c1cc(CN2CCN(C3COC3)CC2)cc(OC(F)(F)C(F)F)c1 [Example 141, N-(3-bromo-5-(2-(3-((4-(oxetan-3-yl)piperazin-1-yl)methyl)-5-(1,1,2,2-tetrafluoroethoxy)phenyl)propan-2-yl)phenyl)-5-(methylsulfonamido)benzo[b]thiophene-2-carboxamide] |
| 3 | > 1.1 | > 1.1 | > 1.1 | C=CS(=O)(=O)Nc1ccc2sc(C(=O)Nc3cc(Cl)cc(C(C)(C)c4cc(OC(C)C)cc(OC(F)(F)F)c4)c3)cc2c1 [Example 207, N-(3-chloro-5-(2-(3-isopropoxy-5-(trifluoromethoxy)phenyl)propan-2-yl)phenyl)-5-(vinylsulfonamido)benzo[b]thiophene-2-carboxamide] |
| 3.4 | > 1.1 | > 1.1 | > 1.1 | CC(C)(c1cc(Cl)cc(NC(=O)c2cc3cc(NS(C)(=O)=O)ccc3s2)c1)c1cc(OC2CCNCC2)cc(OC(F)(F)F)c1 [Example 96, N-(3-chloro-5-(2-(3-(piperidin-4-yloxy)-5-(trifluoromethoxy)phenyl)propan-2-yl)phenyl)-5-(methylsulfonamido)benzo[b]thiophene-2-carboxamide] |
| > 10 | > 10 | > 1.1 | > 1.1 | CC(C)(c1cc(Cl)cc(NC(=O)c2cc3cc(NS(C)(=O)=O)ccc3s2)c1)n1cnccc1=O [Example 189] |
| 0.84 | 1.6 | 0.98 | 2.2 | CS(=O)(=O)Nc1ccc2sc(C(=O)Nc3cc(Br)cc(S(=O)(=O)N4CCc5ccc(F)cc5C4)c3)cc2c1 [Example 418, N-(3-bromo-5-((7-fluoro-3,4-dihydroisoquinolin-2(1H)-yl)sulfonyl)phenyl)-5-(methylsulfonamido)benzo[b]thiophene-2-carboxamide] |
| 0.67 | 1 | 0.65 | 1.8 | CS(=O)(=O)Nc1ccc2sc(C(=O)Nc3cc(Br)cc(S(=O)(=O)N4CCc5c(F)cc(F)cc5C4)c3)cc2c1 [Example 419, N-(3-bromo-5-((5,7-difluoro-3,4-dihydroisoquinolin-2(1H)-yl)sulfonyl)phenyl)-5-(methylsulfonamido)benzo[b]thiophene-2-carboxamide] |
| 0.066 | 0.074 | 0.055 | 0.15 | CS(=O)(=O)Nc1ccc2sc(C(=O)Nc3cc(Cl)cc(Oc4ccc(Cl)cc4)c3)cc2c1 [Example 445, N-(3-chloro-5-(4-chlorophenoxy)phenyl)-5-(methylsulfonamido)benzo[b]thiophene-2-carboxamide] |
| 0.67 | 0.8 | 0.47 | 1.04 | CC(C)Oc1cc(N2CCN(C)CC2)cc(C(C)(C)c2cc(Cl)cc(NC(=O)c3cc4cc(NS(C)(=O)=O)ccc4s3)c2)c1 [Example 147, N-(3-chloro-5-(2-(3-isopropoxy-5-(4-methylpiperazin-1-yl)phenyl)propan-2-yl)phenyl)-5-(methylsulfonamido)benzo[b]thiophene-2-carboxamide] |
| 0.12 | 0.056 | 0.048 | 0.22 | CC(C)(c1ccc(Cl)cc1)c1cc(Cl)cc(NC(=O)c2cc3cc(NS(C)(=O)=O)ccc3s2)c1 [Example 158, N-(3-chloro-5-(2-(4-chlorophenyl)propan-2-yl)phenyl)-5-(methylsulfonamido)benzo[b]thiophene-2-carboxamide] |
